Source: patent publication US20070031394A1, “Method of treating neurological disorders” (priority 2005, published 2007)

Assays:
Format in all cases: in vivo, human
essential tremor [1] = assay: Riboflavin daily in 15 persons over 50 with essential tremor, Fahn-Tolosa-Marin clinical tremor rating; parameters: key to Tremor Score After Rx, L Hand / Tremor Score After Rx, Head / Tremor Score After Rx, R Hand / Tremor Score After Rx, Hands: 0=Normal; 1=Slight; 2=Moderately abnormal; 3=Markedly abnormal; 4=Severely abnormal; settings: for Tremor Score After Rx, Hands: before Rx Hands 1
Protocol: (§1) 15 persons over the age of 50 were tested, utilizing daily dosages of between 400 and 800 mg of riboflavin. Riboflavin was the only vitamin used for those patients who were on other tremor medications. These patients were continued on them.
Patients were evaluated with arms outstretched, elbows bent and hands near the chin, writing with both hands, drinking holding a cup with either hand, and pouring water with either hand. Evaluation was based on a four-point scale as published by Fahn, Tolosa and Marin, Clinical Rating Scale for Tremor in Parkinson's Disease and Movement Disorders [Williams and Wilkins, 1993].

[2] = Side effects in the 15-person riboflavin test
Protocol: as §1

essential tremor [3] = assay: One patient, sequential course of riboflavin with/without coenzyme Q10 and B vitamins, tremor score; parameters: key to tremor score, Head / tremor score, Right Hand / tremor score, Left Hand: 0=Normal; 1=Slight; 2=Moderately abnormal; 3=Markedly abnormal; 4=Severely abnormal
Protocol: For one patient, before beginning a course of therapy in accordance with the inventive treatment, that patient's tremor score was Head 0, Right Hand 2, Left Hand 3. Treatment commenced for three months as follows:
The tremor score, after three months of treatment, improved to Head 0, Right Hand 1, Left Hand 2. Treatment then continued for an additional three months with an increase in the daily dosage of Riboflavin to 800 mg. The tremor score was then measured to be Head 0, Right Hand 0, Left Hand 1. […] Moreover, if treatment was resumed, there was a return to reduced tremor levels after 2 to 3 days.

[4] = system: tremor on action and intention due to Depakote; seizures; assay: One patient with severe epilepsy and Depakote-induced tremor treated with the inventive vitamin therapy; settings: one patient with severe epilepsy on high dose Depakote
Source text: Other conditions that are commonly seen in patients with essential tremor, such as deafness, motion sickness, balance difficulties, and cognitive problems may be benefited by this treatment. Additionally, patients who develop tremors due to the use of medications that cause tremor (such as Depakote and Lithium) may benefit by the use of the inventive vitamin therapy. […] Other neurological conditions, such as epilepsy, when associated with tremor, may be benefited by the inventive vitamin therapy.

essential tremor [5] = assay: Riboflavin daily in 15 persons over 50 with essential tremor, Fahn-Tolosa-Marin clinical tremor rating; settings: 200 mg to 1000 mg of riboflavin on a daily basis
[6] = after an additional three months with Riboflavin increased to 800 mg daily, same co-administered vitamins and coenzyme Q10

## Cc1cc2nc3c(=O)[nH]c(=O)nc-3n(C[C@H](O)[C@H](O)[C@H](O)CO)c2cc1C [Riboflavin, riboflavin]
Essential tremor [1]; patient # 1, 400 mg daily, 6 wks., concomitant None
  Tremor Score After Rx, Hands: Hands 1
Essential tremor [1]; patient # 1, 400 mg daily, 6 wks., before Rx Head 2, concomitant tremor medications None
  Tremor Score After Rx, Head: Head 1
Essential tremor [1]; patient # 2, 600 mg daily, 3 mos., concomitant None
  Tremor Score After Rx, Hands: Hands 1
Essential tremor [1]; patient # 2, 600 mg daily, 3 mos., before Rx Head 2, concomitant None
  Tremor Score After Rx, Head: Head 1
Essential tremor [1]; patient # 3, 400 mg daily, 4 wks., before Rx Head 0, concomitant None
  Tremor Score After Rx, Head: Head 0
Essential tremor [1]; patient # 3, 400 mg daily, 4 wks., before Rx L Hand 4, concomitant None
  Tremor Score After Rx, L Hand: L Hand 3
Essential tremor [1]; patient # 3, 400 mg daily, 4 wks., before Rx R Hand 3, concomitant None
  Tremor Score After Rx, R Hand: R Hand 2
Essential tremor [1]; patient # 4, 800 mg daily, 2 wks., before Rx Head 0, concomitant None
  Tremor Score After Rx, Head: Head 0
Essential tremor [1]; patient # 4, 800 mg daily, 2 wks., before Rx L Hand 3, concomitant None
  Tremor Score After Rx, L Hand: L Hand 2
Essential tremor [1]; patient # 4, 800 mg daily, 2 wks., before Rx R Hand 2, concomitant None
  Tremor Score After Rx, R Hand: R Hand 2
Essential tremor [1]; patient # 5, 400 mg daily, 7 mos., before Rx Head 0, concomitant Inderal LA 80 mg.
  Tremor Score After Rx, Head: Head 0
Essential tremor [1]; patient # 5, 400 mg daily, 7 mos., before Rx L Hand 3, concomitant Inderal LA 80 mg.
  Tremor Score After Rx, L Hand: L Hand 2
Essential tremor [1]; patient # 5, 400 mg daily, 7 mos., before Rx R Hand 2, concomitant Inderal LA 80 mg.
  Tremor Score After Rx, R Hand: R Hand 2
Essential tremor [1]; patient # 6, 400 mg daily, 12 mos., before Rx Head 0, concomitant Inderal LA 60
  Tremor Score After Rx, Head: Head 0
Essential tremor [1]; patient # 6, 400 mg daily, 12 mos., before Rx L Hand 2, concomitant Inderal LA 60
  Tremor Score After Rx, L Hand: L Hand 1
Essential tremor [1]; patient # 6, 400 mg daily, 12 mos., before Rx R Hand 2, concomitant Inderal LA 60
  Tremor Score After Rx, R Hand: R Hand 1
Essential tremor [1]; patient # 7, 400 mg daily, 4 wks., before Rx Head 0, concomitant None
  Tremor Score After Rx, Head: Head 0
Essential tremor [1]; patient # 7, 400 mg daily, 4 wks., before Rx L Hand 2, concomitant None
  Tremor Score After Rx, L Hand: L Hand 1
Essential tremor [1]; patient # 7, 400 mg daily, 4 wks., before Rx R Hand 2, concomitant None
  Tremor Score After Rx, R Hand: R Hand 1
Essential tremor [1]; patient # 8, 600 mg daily, 4 wks., before Rx Head 0, concomitant Topamax
  Tremor Score After Rx, Head: Head 0
Essential tremor [1]; patient # 8, 600 mg daily, 4 wks., before Rx L hand 4, concomitant Topamax
  Tremor Score After Rx, L Hand: L Hand 3
Essential tremor [1]; patient # 8, 600 mg daily, 4 wks., before Rx R hand 4, concomitant Topamax
  Tremor Score After Rx, R Hand: R Hand 3
Essential tremor [1]; patient # 9, 400 mg daily, 4 wks., before Rx Head 0, concomitant Mysoline, Inderal and Topamax
  Tremor Score After Rx, Head: Head 0
Essential tremor [1]; patient # 9, 400 mg daily, 4 wks., before Rx L Hand 4, concomitant Mysoline, Inderal and Topamax
  Tremor Score After Rx, L Hand: L hand 3
Essential tremor [1]; patient # 9, 400 mg daily, 4 wks., before Rx R Hand 4, concomitant Mysoline, Inderal and Topamax
  Tremor Score After Rx, R Hand: R Hand 4
Essential tremor [1]; patient # 10, 800 mg daily, 4 mos., before Rx Head 0, concomitant Mysoline, Inderal and Topamax
  Tremor Score After Rx, Head: Head 0
Essential tremor [1]; patient # 10, 800 mg daily, 4 mos., before Rx L Hand 3, concomitant Mysoline, Inderal and Topamax
  Tremor Score After Rx, L Hand: L Hand 2
Essential tremor [1]; patient # 10, 800 mg daily, 4 mos., before Rx R Hand 4, concomitant Mysoline, Inderal and Topamax
  Tremor Score After Rx, R Hand: R Hand 4
Essential tremor [1]; patient # 11, 400 mg daily, 1 year, before Rx Head 2, concomitant None
  Tremor Score After Rx, Head: Head 1
Essential tremor [1]; patient # 11, 400 mg daily, 1 year, before Rx L Hand 2, concomitant None
  Tremor Score After Rx, L Hand: L Hand 1
Essential tremor [1]; patient # 11, 400 mg daily, 1 year, before Rx R Hand 2, concomitant None
  Tremor Score After Rx, R Hand: R Hand 1
Essential tremor [1]; patient # 12, 400 mg daily, 2 wks., before Rx Head not given, concomitant None
  Tremor Score After Rx, Head: Head 2
Essential tremor [1]; patient # 12, 400 mg daily, 2 wks., before Rx L Hand not given, concomitant None
  Tremor Score After Rx, L Hand: L Hand 2
Essential tremor [1]; patient # 12, 400 mg daily, 2 wks., before Rx R hand 2, concomitant None
  Tremor Score After Rx, R Hand: R Hand 1
Essential tremor [1]; patient # 13, 400 mg daily, 3 wks., before Rx Head 0, concomitant None
  Tremor Score After Rx, Head: Head 0
Essential tremor [1]; patient # 13, 400 mg daily, 3 wks., before Rx L Hand 2, concomitant None
  Tremor Score After Rx, L Hand: L Hand 1
Essential tremor [1]; patient # 13, 400 mg daily, 3 wks., before Rx R Hand 2, concomitant None
  Tremor Score After Rx, R Hand: R Hand 1
Essential tremor [1]; patient # 14, 400 mg daily, 5 mos., before Rx Head 0, concomitant None
  Tremor Score After Rx, Head: Head 0
Essential tremor [1]; patient # 14, 400 mg daily, 5 mos., before Rx L Hand 2, concomitant None
  Tremor Score After Rx, L Hand: L Hand 1
Essential tremor [1]; patient # 14, 400 mg daily, 5 mos., before Rx R Hand 2, concomitant None
  Tremor Score After Rx, R Hand: R Hand 1
Essential tremor [1]; patient # 15, 400 mg daily, 1 mo., before Rx Head 0, concomitant None
  Tremor Score After Rx, Head: Head 0
Essential tremor [1]; patient # 15, 400 mg daily, 1 mo., before Rx R Hand 1, concomitant None
  Tremor Score After Rx, R Hand: R Hand 1
Essential tremor [1]; within a few days of stopping the daily high dosage of riboflavin
  symptoms after stopping daily intake: the symptoms of essential tremor returned
[2]; general statement on the treatment
  side effect: bright yellow urine
[2]; patient # 1, 400 mg daily, 6 wks.
  Side Effects: None
[2]; patient # 2, 600 mg daily, 3 mos.
  Side Effects: None
[2]; patient # 3, 400 mg daily, 4 wks.
  Side Effects: None
[2]; patient # 4, 800 mg daily, 2 wks.
  Side Effects: None
[2]; patient # 5, 400 mg daily, 7 mos., concomitant Inderal LA 80 mg.
  Side Effects: None
[2]; patient # 6, 400 mg daily, 12 mos., concomitant Inderal LA 60
  Side Effects: None
[2]; patient # 7, 400 mg daily, 4 wks.
  Side Effects: None
[2]; patient # 8, 600 mg daily, 4 wks., concomitant Topamax
  Side Effects: None
[2]; patient # 9, 400 mg daily, 4 wks., concomitant Mysoline, Inderal and Topamax
  Side Effects: None
[2]; patient # 10, 800 mg daily, 4 mos., concomitant Mysoline, Inderal and Topamax
  Side Effects: None
[2]; patient # 11, 400 mg daily, 1 year
  Side Effects: None
[2]; patient # 12, 400 mg daily, 2 wks.
  Side Effects: None
[2]; patient # 13, 400 mg daily, 3 wks.
  Side Effects: None
[2]; patient # 14, 400 mg daily, 5 mos.
  Side Effects: None
[2]; patient # 15, 400 mg daily, 1 mo.
  Side Effects: None
Essential tremor [3]; additional three months with just daily Riboflavin (800 mg) and coenzyme Q10 (1000 mg)
  head and hand findings following treatment: stable head and hand findings
Essential tremor [3]; [6]
  tremor score, Head: 0
  tremor score, Left Hand: 1
  tremor score, Right Hand: 0
Essential tremor [3]; after three months of daily Riboflavin 400 mg + Coenzyme Q10 1000 mg + Thiamine 50 mg + Niacin 50 mg + Pantothenic Acid 50 mg, before Head 0
  tremor score, Head: 0
Essential tremor [3]; after three months of daily Riboflavin 400 mg + Coenzyme Q10 1000 mg + Thiamine 50 mg + Niacin 50 mg + Pantothenic Acid 50 mg, before Left Hand 3
  tremor score, Left Hand: 2
Essential tremor [3]; after three months of daily Riboflavin 400 mg + Coenzyme Q10 1000 mg + Thiamine 50 mg + Niacin 50 mg + Pantothenic Acid 50 mg, before Right Hand 2
  tremor score, Right Hand: 1
Essential tremor [3]; thereafter a year with just Riboflavin 800 mg daily
  head and hand findings: stable head and hand findings
Essential tremor [3]; treatment missed for two days or more
  tremor when treatment was missed: prior untreated levels of tremor returned
[4]
  seizure frequency: decreased
  tremor on action and intention: significantly improved
Essential tremor [5]
  effect on symptoms of essential tremor: ameliorates the symptoms of essential tremor
